Results from PubChem BioAssay AID179 (DTP/NCI, 2004).
Values joined by “and” are separate entries in the source; they are usually repeats but may differ in a detail not shown here. Identical values can stand only once. Active and inactive are the calls of the source.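 Rule for the calls: active = compounds giving half or more protection of infected cells from virus-caused growth loss, again on retest; inactive = the rest.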 Where a SMILES comes first, the peptide text is derived from it.

System: CEM cells HIV-1 protection, formazan growth assay
Assay: NCI AIDS Antiviral Assay
Details: for IC50: measured here: growth of uninfected CEM cells
Method in brief: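 Steps: treat uninfected and HIV-1-infected human CEM cells at five drug levels; quantify growth by soluble formazan; retest any compound reaching 50% protection; classify actives from the retest.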

Row | SMILES | EC50 | IC50 | outcome
1 | N#CCc1ccccc1C(=O)O | > 1550 µM | 891 µM | 
2 | CSc1cnn(CCC#N)c(=O)n1 | > 200 µM | 36.3 µM | 
3 | CCCCc1ccc(N2C(=O)c3cc(C)cnc3S2(=O)=O)cc1 | > 200 µM | > 200 µM | 
4 | C/C=C/C=C\C=C/C(O)CC(OP(=O)(O)O)C(C)(O)/C=C/C1CC=CC(=O)O1 (centres undefined) | > 575 µM | 33.1 µM | 
5 | c1ccc(N/N=C2\CC(c3ccccc3)Oc3ccccc32)cc1 (centres undefined) | > 200 µM | 22.4 µM | 
6 | Cc1cc(C)nc(NS(=O)(=O)c2ccc(Nc3c4ccccc4nc4c(C(=O)NCCN(C)C)ccc(Cl)c34)cc2)n1 |  |  | inactive
7 | CN(C)c1ccc(C=C2C(=O)NC(=O)NC2=O)cc1 | > 28.2 µM | > 28.2 µM | 
8 | CSc1ccc(C2OC(=O)c3c2ccc2ccccc32)c(C)c1 (centres undefined) | > 16.2 µM | > 16.2 µM | 
9 | CC(C)N=C(N)CSS(=O)(=O)O | > 200 µM | > 200 µM | 
10 | O=C1[C@H](O)[C@@H]2C(O)O[C@H]3[C@@H]2N1C[C@H]3[Si](c1ccccc1)(c1ccccc1)c1ccccc1 (some centres undefined) | > 200 µM | > 200 µM | 
11 | c1ccc(-c2ccccc2SSc2ccccc2-c2ccccc2)cc1 | > 200 µM | 5.37 µM | 
12 | COc1ccc(NC(=O)C(=O)C(C(=O)c2ccccc2)C2OC(=O)c3ccccc32)c([N+](=O)[O-])c1 (centres undefined) | > 135 µM | > 135 µM | 
13 | O=c1ccn(C/C=C/c2ccccc2)c(=S)n1C/C=C/c1ccccc1 |  |  | inactive
14 | CC(C)SC1SCC2C(=O)N(C)C3(CC3C)C(=O)OCC(NC(=O)c3nc4ccccc4cc3O)C(=O)NC(C)C(=O)N(C)C1C(=O)N(C)C1(CC1C)C(=O)OCC(NC(=O)c1nc3ccccc3cc1O)C(=O)NC(C)C(=O)N2C (centres undefined) | > 11.2 µM | 0.00363 µM | 
15 | CC(C)=CCC/C(C)=C/Cc1cc(O)c(Br)cc1O | > 145 µM | 24 µM | 
16 | CC(C)CC(NC(=O)C(Cc1ccc(O)cc1)NC(=O)C(CO)NC(=O)C(C)NC(=O)C(CO)NC(=O)C(CCC(N)=O)NC(=O)C(NC(=O)C(N)CCC(=O)O)C(C)C)C(=O)NC(CCCN=C(N)N)C(=O)NC(CCCCN)C(=O)O (centres undefined) (H-EVQSASYLRK-OH; configuration not given here) |  |  | inactive
17 | Cc1ccc(SSc2nnnn2C)cc1 | > 200 µM | 11 µM | 
18 | O=C(O)CN(c1ccccc1)S(=O)(=O)c1ccc([N+](=O)[O-])cc1 |  |  | inactive
19 | COc1ccc(/C=C/C(=O)CCN2CCN(CCC(=O)/C=C/c3ccc(OC)cc3)CC2)cc1 | > 151 µM | 1.58 µM | 
20 | CCOC12OC3=C(CC1CC1=C(CCC1=O)O2)C(=O)CC3 (centres undefined) |  |  | inactive
21 | CCOC(C)OC1CC(n2cc(C)c(=O)[nH]c2=O)OC1CO (centres undefined) | > 14.8 µM | 13.2 µM | 
22 | O=C(CCCN1CCC2(CC1)CC(=O)N(N1CCCCCC1)C2=O)c1ccc(F)cc1 | > 200 µM | > 200 µM | 

Row | SMILES | EC50 | IC50 | outcome
23 | CC(C)C(=O)/C=C/c1ccc(Br)cc1 |  |  | inactive
24 | CCOC(=O)NN(C(=O)OCC)C(C(=O)C1CCCCC1)N(NC(=O)OCC)C(=O)OCC |  |  | inactive
25 | CC(C)(C)N=CN1C=Cc2nc3ccccc3cc2C1 |  |  | inactive
26 | Cc1cn([C@@H]2C[C@H](CO)[C@@H]2O)c(=O)[nH]c1=O | > 200 µM | > 200 µM | 
27 | COc1ccccc1Nc1nc(N)nc(N)c1N=O | > 200 µM | > 200 µM | 
28 | O=c1oc2ccccc2c(O)c1C(c1ccc2c(c1)OCO2)N1CCCC1 (centres undefined) | > 200 µM | 93.3 µM | 
29 | CNCC(=O)c1ccc(O)c(O)c1 | > 200 µM | > 200 µM | 
30 | CC(=O)Nc1c2sscc-2n(C)c1=O | > 16.6 µM | 0.891 µM | 
31 | O=c1/c(=C/c2ccc(Cl)cc2)sc2nc(-c3ccccc3)nn12 | > 200 µM | > 200 µM | 
32 | CC1(OCc2ccccc2)C(=O)N2C1N(C(=O)OCc1ccccc1)CC2(C)C (centres undefined) | > 251 µM | 53.7 µM | 
33 | Cc1cc(C)n(-c2nc3ccccc3c(=O)[nH]2)n1 | > 5.13 µM | 1.07 µM | 
34 | CCC1Oc2c(CC=C(C)C)c(O)c(C(O)C(C)CC)c3oc(=O)cc1c23 (centres undefined) | > 200 µM | 26.3 µM | 
35 | OCn1nc2c(C3OCCO3)cc3ccccc3n2c1=S | > 117 µM | 61.7 µM | 
36 | CCSc1c2ccccc2nc2c(OC)ccc(OC)c12 |  |  | inactive
37 | O=C1COc2ccc(F)cc2N1 | > 380 µM | > 380 µM | 
38 | Cc1cc(OP2(=O)Nc3ccccc3-c3ccccc3N2)ccc1Cl | > 70.8 µM | 1.26 µM | 
39 | O=c1[nH]nc(NCCc2ccccc2)c2nnn(Cc3ccccc3)c12 | > 200 µM | > 200 µM | 
40 | CNc1ccc(Cl)cc1S(=O)(=O)c1ccccc1[N+](=O)[O-] | 0.562 µM | 741 µM | 
41 | COc1cc(NC(C)=O)c2[nH]c3c(C)cc(NC(C)=O)c(C)c3c2c1 |  |  | inactive
42 | CSC1=NC(C(N)=O)C(N)N1C (centres undefined) | > 200 µM | > 200 µM | 
43 | CCOC(=O)Nc1nn(C)c(=NCc2ccccc2)s1 | > 200 µM | > 200 µM | 
44 | N#CCc1n[nH]c(Cc2ccccc2)n1 | > 200 µM | > 200 µM | 

Row | SMILES | EC50 | IC50 | outcome
45 | CS(=O)(=O)OCCn1cnc2nc(NC(=O)c3ccccc3)[nH]c(=O)c21 | > 182 µM | > 182 µM | 
46 | O=C(c1ccccc1)N1CN(C(=O)c2ccccc2)CN(C(=O)c2ccccc2)C1 | > 200 µM | 30.2 µM | 
47 | Cc1nn(C(=O)CC(=O)Nc2ccccc2)c(C)c1N=Nc1ccccc1F |  |  | inactive
48 | Clc1ccc(C2=NON(c3ncccn3)C3N=CC=CN23)cc1 (centres undefined) | > 15.8 µM | > 15.8 µM | 
49 | Cc1ccc(S(=O)(=O)/N=C(\N)N(C)N=O)cc1 | > 200 µM | 63.1 µM | 
50 | OCCN1CCN(CCO)Cc2ccccc2OCCOc2ccccc2C1 | > 245 µM | 97.7 µM | 
51 | NC1=NC2(COC(c3ccccc3)(c3ccccc3)c3ccccc3)OC(COC(c3ccccc3)(c3ccccc3)c3ccccc3)C(O)C2O1 (centres undefined) | > 200 µM | 12 µM | 
52 | O=[N+]([O-])c1ccc(-n2nc3ccc4c(no[n+]4[O-])c3n2)cc1 | > 200 µM | 57.5 µM | 
53 | Cn1cc(C(=O)c2ccccc2)cc(C(=O)c2ccccc2)c1=O |  |  | inactive
54 | CCC(c1ccc(OC)cc1)C1NC(=S)NC1=O (centres undefined) | > 200 µM | 31.6 µM | 
55 | CC1(C)CC(=O)C(C(CC(c2ccccc2)c2cc3c(cc2O)OCO3)C2=C(O)CC(C)(C)CC2=O)=C(O)C1 (centres undefined) | > 200 µM | 112 µM | 
56 | C=C(CCCCCCCCC)CC(=O)SCCNC(=O)CCNC(=O)C(O)C(C)(C)COP(=O)(O)OP(=O)(O)OCC1OC(n2cnc3c(N)ncnc32)C(O)C1OP(=O)(O)O (centres undefined) | > 200 µM | 72.4 µM | 
57 | Nc1nc(SCc2ccccc2)c2ncn(CCO)c2n1 | > 200 µM | 191 µM | 
58 | Clc1c2ccccc2[se][n+]1Cc1ccccc1 | > 15.1 µM | 12.3 µM | 
59 | Cc1ccc(N=C2SC(=S)N(CCC[N+](C)(C)C)C2=Nc2ccc(C)cc2)cc1 | > 200 µM | 14.1 µM | 
60 | CCN(CC)CCC(=O)c1ccc(Oc2ccc(C)cc2)cc1 | > 200 µM | 28.8 µM | 
61 | C=C(C)[C@@H]1CC[C@]2(C(=O)OC)CC[C@]3(C)[C@H](CC[C@@H]4[C@@]5(C)CC[C@H](O)C(C)(C)[C@@H]5CC[C@]43C)[C@@H]12 |  |  | inactive
62 | COc1ccc(C2C3=CONC3CC3CCCCC32)cc1 (centres undefined) | > 200 µM | 77.6 µM | 
63 | OC1CC2CCC(C1)S2 (centres undefined) | > 200 µM | > 200 µM | 
64 | CN(C)CCCNCc1cc(N(C)C)cc(CNCCCN(C)C)n1 | > 200 µM | > 200 µM | 
65 | CCC(C)c1c(N)o[nH]c1=O (centres undefined) | > 200 µM | > 200 µM | 
66 | COC(=O)C(=O)/C=C(\O)c1ccc(Cl)cc1 | > 200 µM | > 200 µM | 

Row | SMILES | EC50 | IC50 | outcome
67 | Nn1c(Cc2ccc(Cl)cc2)n[nH]c1=O | > 200 µM | > 200 µM | 
68 | Cc1ccc(Nc2nnc(CSc3ccc(Cl)cc3)s2)c(S(=O)(=O)O)c1 | > 200 µM | 148 µM | 
69 | CC(=O)Nc1ccc(C(=O)NN2C(=O)CSC2c2ccc([N+](=O)[O-])cc2)cc1 (centres undefined) | > 25.1 µM | > 25.1 µM | 
70 | COC(=O)/C=C(\C(=O)OC)C1C(=O)Oc2c(C)c(=O)c3ccccc3n21 (centres undefined) | > 200 µM | 60.3 µM | 
71 | Nc1sc(=S)nc2sc(Nc3ccccc3)nc12 | > 427 µM | > 427 µM | 
72 | Cc1cc(C)c(S(=O)(=O)N(CCCN)OCCCN)c(C)c1 | > 200 µM | 195 µM | 
73 | CCCCCCCCCCCCCCCCc1c(C(=O)OC)nc(NC#N)[nH]c1=O | > 14.5 µM | > 14.5 µM | 
74 | O=C(O)c1cc(N=Nc2cc(S(=O)(=O)O)c3cccnc3c2O)ccc1/C=C/c1ccc(N=Nc2cc(S(=O)(=O)O)c3cccnc3c2O)cc1C(=O)O | 4.27 µM and 21.4 µM | 61.7 µM and > 200 µM | 
75 | COC(=O)c1cc(C(=CC(=O)N[C@@H]2CC[C@@]3(C)[C@@H](CC[C@@H]4[C@@H]3CC[C@]3(C)[C@@H]([C@H](C)CCCC(C)C)CC[C@@H]43)C2)c2cc(Cl)c(OC)c(C(=O)OC)c2)cc(Cl)c1OC | > 100 µM | > 100 µM | 
76 | CC(=O)c1cccc(NC(=O)C(=O)NNc2n[nH]c(=S)n2N)c1 | > 282 µM | 6.76 µM | 
77 | OCC(O)CC[CH2][Sn]([Br])([c]1ccccc1)[c]1ccccc1 (centres undefined) |  |  | inactive
78 | Clc1ccc(Nc2nn3c(CCCCCCCCc4nnc5sc(Nc6ccc(Cl)cc6)nn45)nnc3s2)cc1 | > 200 µM | 112 µM | 
79 | Oc1ccc(Cl)cc1Cc1ccccc1 | > 200 µM | 39.8 µM | 
80 | c1ccc2sc(SCN3CCN(CSc4nc5ccccc5s4)CC3)nc2c1 | > 1.62 µM | > 1.62 µM | 
81 | O=[N+]([O-])c1ccc(-c2csc3nc(-c4ccccc4)nn23)cc1 | > 200 µM | > 200 µM | 
82 | CCN(CC)CCN1C(=O)c2cccc3cc(OC)cc(c23)C1=O | > 200 µM | 3.47 µM | 
83 | CCOC(=O)Cc1c[nH]c2ccc(N(CCO)CCO)cc12 | > 200 µM |  | 
84 | Cc1ccc(S(=O)(=O)N(C)C)cc1NC1=NCCO1 | > 200 µM | > 200 µM | 
85 | COC1(C)C(=O)N2C1N(C(C)=O)CC2(C)C (centres undefined) | > 501 µM | > 501 µM | 
86 | NC1OC(COC(=O)c2ccccc2)C(O)C(OC(=O)c2ccccc2)C1OC(=O)c1ccccc1 (centres undefined) | > 200 µM | 0.933 µM | 
87 | CCC(C)(O)c1cn(-c2cccc(S(=O)(=O)O)c2)nn1 (centres undefined) | > 417 µM | > 417 µM | 
